What was measured:
blaADC-7 = assay: MIC of antibiotics in combination with 10 μg/mL of ceftolozane-like BATSIs; assay type: cell-based; details: CAZ alone
M9 clinical = assay: as above; assay type: cell-based; details: CAZ alone
blaCMY-2 = assay: as above; assay type: cell-based; details: CAZ alone
18SH = assay: as above; assay type: cell-based; details: CAZ alone
blaPDC-3E221K = assay: as above; assay type: cell-based; details: CAZ alone
HUMC1 Abspp = assay: as above; assay type: cell-based; details: SULB alone
A. baumannii 0057 = assay: MIC with cefepime, agar microdilution, CLSI; assay type: cell-based; details: cefepime alone; ADC-7
Experimental: (§1) Minimum inhibitory concentration (MIC) of MB076 and derivatives (PCF_038-043) in combination with cefepime.
(§2) MICs were determined by the Agar microdilution method, following CLSI guidelines. Compounds were tested at fixed concentration of 4 ug/ml in combination with cefepime.

E. coli 29838 = assay: MIC with cefepime, agar microdilution, CLSI; assay type: cell-based; details: cefepime alone; CTX-M-14, TEM-1
Experimental: as §1, §2

E. coli ATCC BAA202 = assay: MIC with cefepime, agar microdilution, CLSI; assay type: cell-based; details: cefepime alone; SHV-1
Experimental: as §1, §2

[1] = test system: E. coli DH10B pBC-SK KPC-2; assay: MIC with cefepime, agar microdilution, CLSI; assay type: cell-based; details: cefepime alone
Experimental: as §1, §2

E. coli DH10B pBC-SK P99 = assay: MIC with cefepime, agar microdilution, CLSI; assay type: cell-based; details: cefepime alone
Experimental: as §1, §2

[2] = test system: E. coli DH10B pBC-SK PDC-3; assay: MIC with cefepime, agar microdilution, CLSI; assay type: cell-based; details: cefepime alone
Experimental: as §1, §2

[3] = test system: E. coli DH10B pBC-SK SHV-2; assay: MIC with cefepime, agar microdilution, CLSI; assay type: cell-based; details: cefepime alone
Experimental: as §1, §2

[4] = test system: E. coli DH10B pBC-SK control; assay: MIC with cefepime, agar microdilution, CLSI; assay type: cell-based; details: cefepime alone; B-lactamases none
Experimental: as §1, §2

E. coli pLTCF1 = assay: MIC with cefepime, agar microdilution, CLSI; assay type: cell-based; details: cefepime alone; CTX-M group 9
Experimental: as §1, §2

E. coli pLTCF2 = assay: MIC with cefepime, agar microdilution, CLSI; assay type: cell-based; details: cefepime alone
Experimental: as §1, §2

K. pneumoniae 253 = assay: MIC with cefepime, agar microdilution, CLSI; assay type: cell-based; details: cefepime alone; TEM-12, SHV-5, CTX-M
Experimental: as §1, §2

K. pneumoniae 255 = assay: MIC with cefepime, agar microdilution, CLSI; assay type: cell-based; details: cefepime alone; TEM-1, SHV-2
Experimental: as §1, §2

K. pneumoniae 266 = assay: MIC with cefepime, agar microdilution, CLSI; assay type: cell-based; details: cefepime alone; SHV-5
Experimental: as §1, §2

K. pneumoniae 34700 = assay: MIC with cefepime, agar microdilution, CLSI; assay type: cell-based; details: cefepime alone; CTX-M-15, SHV, TEM
Experimental: as §1, §2

K. pneumoniae 427 = assay: MIC with cefepime, agar microdilution, CLSI; assay type: cell-based; details: cefepime alone; TEM-1, SHV-1, CTX-M-3
Experimental: as §1, §2

K. pneumoniae ST17 = assay: MIC with cefepime, agar microdilution, CLSI; assay type: cell-based; details: cefepime alone; KPC-2, TEM, SHV, CTX-M-Group 1
Experimental: as §1, §2

K. pneumoniae ST258 B5 = assay: MIC with cefepime, agar microdilution, CLSI; assay type: cell-based; details: cefepime alone; KPC-2
Experimental: as §1, §2

K. pneumoniae ST258 C3 = assay: MIC with cefepime, agar microdilution, CLSI; assay type: cell-based; details: cefepime alone; KPC-3
Experimental: as §1, §2

[5] = test system: K. pneumoniae original KPC-2; assay: MIC with cefepime, agar microdilution, CLSI; assay type: cell-based; details: cefepime alone
Experimental: as §1, §2

[6] = test system: Klebsiella pneumonia/BAA-1705; assay: MIC of MB076 alone or in combination with cefepime or meropenem; assay type: cell-based; details: Klebsiella pneumoniae, BAA1705; single agent; read-out: MIC
Experimental: as §2

[7] = test system: Klebsiella pneumonia/FDA-CDC AR-BANK#0097; assay: as above; assay type: cell-based; details: Klebsiella pneumoniae; single agent; read-out: MIC
Experimental: as §2

[8] = test system: Klebsiella pneumonia/FDA-CDC AR-BANK#0098; assay: as above; assay type: cell-based; details: Klebsiella pneumoniae; single agent; read-out: MIC
Experimental: as §2

K. pneum blaKPC-2 = assay: MIC of antibiotics in combination with 10 μg/mL of ceftolozane-like BATSIs; assay type: cell-based; details: FEP alone
K. pneum KPC-Kpn = assay: as above; assay type: cell-based; details: FEP alone
blaCTXM-9 = assay: as above; assay type: cell-based; details: FEP alone
K. pneumoniae Kp1 = assay: Survival of mice infected IV with K. pneumoniae Kp1; assay type: in vivo; details: C57BL/6 mice infected IV with KP1; treated IP at infection, 18 h and 24 h; cefepime 100 mg/kg/dose; cefepime+MB076 at 1:4 ratio
Experimental: FIG. 1 illustrates the survival curve of mice infected IV with K. pneumoniae Kp1 and treated with cefepime alone or in combination with MB076. Five male C57BL/6 mice per treatment were infected IV via the tail-vein with 2.1×10^8 CFU/mouse and treated with placebo control (phosphate-buffered saline), cefepime (100 mg/kg/dose), or cefepime and MB076.
To determine […] activity of MB076 we used cefepime with or without MB076 in mice infected IV with the pan drug resistant strain KP1 and treated IP at the time of infection with placebo control, cefepime, or cefepime+MB076 (at 1:4 ratio). Doses were repeated the following morning and afternoon (18 h and 24 h after infection, respectively). All mice treated with placebo or cefepime alone died, whereas all mice treated with either ratio of MB076 plus cefepime survived.

NDM-1 pHSG298 = assay: MIC of antibiotics in combination with 10 μg/mL of ceftolozane-like BATSIs; assay type: cell-based; details: IMI alone

Which MIC of antibiotic (blaADC-7) does the source give for `CC(C)(O/N=C(\C(=O)N[C@@H]1C(=O)N2C(C(=O)[O-])=C(C[n+]3ccccc3)CS[C@H]12)c1csc(N)n1)C(=O)O` [CAZ, ceftazidime, reference compound] here?
The MIC of antibiotic was “CAZ 16 mg/mL”.

What about the MIC of antibiotic (M9 clinical) of the same compound?
The MIC of antibiotic was “CAZ >32 mg/mL”.

And the MIC of antibiotic (blaCMY-2)?
The MIC of antibiotic was “CAZ 128 mg/mL”.

And the MIC of antibiotic (18SH)?
Its MIC of antibiotic is “CAZ 64 mg/mL”.

And the MIC of antibiotic (blaPDC-3E221K)?
Its MIC of antibiotic is “CAZ 32 mg/mL”.

How did the MIC of antibiotic (HUMC1 Abspp) turn out when `CC1(C)[C@H](C(=O)O)N2C(=O)C[C@H]2S1(=O)=O` [SULB, sulbactam] was run?
Its MIC of antibiotic is “SULB 4 mg/mL”.

Which MIC of cefepime (A. baumannii 0057) does the source give for `CO/N=C(\C(=O)N[C@@H]1C(=O)N2C(C(=O)[O-])=C(C[N+]3(C)CCCC3)CS[C@H]12)c1csc(N)n1` [Cefepime, cefepime, reference compound] here?
Its MIC of cefepime is 64 µg/mL.

And the MIC of cefepime (E. coli 29838)?
The MIC of cefepime was 4 µg/mL.

And the MIC of cefepime (E. coli ATCC BAA202)?
Its MIC of cefepime is 1 µg/mL.

What about the MIC of cefepime [1] of the same compound?
The MIC of cefepime was 8 µg/mL.

And the MIC of cefepime (E. coli DH10B pBC-SK P99)?
The MIC of cefepime was less than 0.25 µg/mL.

What about the MIC of cefepime [2] of the same compound?
Its MIC of cefepime is less than 0.25 µg/mL.

What about the MIC of cefepime [3] of the same compound?
The MIC of cefepime was 4 µg/mL.

What about the MIC of cefepime [4] of the same compound?
The MIC of cefepime was less than 0.25 µg/mL.

And the MIC of cefepime (E. coli pLTCF1)?
The MIC of cefepime was 8 µg/mL.

What about the MIC of cefepime (E. coli pLTCF2) of the same compound?
Its MIC of cefepime is 1 µg/mL.

What about the MIC of cefepime (K. pneumoniae 253) of the same compound?
Its MIC of cefepime is 32 µg/mL.

What about the MIC of cefepime (K. pneumoniae 255) of the same compound?
The MIC of cefepime was 4 µg/mL.

And the MIC of cefepime (K. pneumoniae 266)?
Its MIC of cefepime is 2 µg/mL.

What about the MIC of cefepime (K. pneumoniae 34700) of the same compound?
Its MIC of cefepime is 32 µg/mL.

What about the MIC of cefepime (K. pneumoniae 427) of the same compound?
Its MIC of cefepime is 8 µg/mL.

And the MIC of cefepime (K. pneumoniae ST17)?
Its MIC of cefepime is 64 µg/mL.

What about the MIC of cefepime (K. pneumoniae ST258 B5) of the same compound?
The MIC of cefepime was 32 µg/mL.

And the MIC of cefepime (K. pneumoniae ST258 C3)?
The MIC of cefepime was 8 µg/mL.

What about the MIC of cefepime [5] of the same compound?
Its MIC of cefepime is 8 µg/mL.

What about the MIC [6] of the same compound?
Its MIC is greater than 32 µg/mL.

And the MIC [7]?
The MIC was greater than 32 µg/mL.

And the MIC [8]?
The MIC was 32 µg/mL.

And the MIC of antibiotic (K. pneum blaKPC-2)?
Its MIC of antibiotic is 16/32.

And the MIC of antibiotic (K. pneum KPC-Kpn)?
Its MIC of antibiotic is “FEP 32 mg/mL”.

And the MIC of antibiotic (blaCTXM-9)?
The MIC of antibiotic was “FEP 8 mg/mL”.

And the “Survival of infected mice” value (K. pneumoniae Kp1)?
The value was “died”.

Which MIC of antibiotic (NDM-1 pHSG298) does the source give for `C[C@@H](O)[C@H]1C(=O)N2C(C(=O)O)=C(SCCN=CN)C[C@H]12` [IMI] here?
Its MIC of antibiotic is “IMI 8 mg/mL”.
